This is an account of results in US11884710B2, “Peptide compounds and methods of use in wound healing” (priority 2013, dated 2024).

SMILES strings stand for the structures.

The assay concerns PKCδ. The experiment in a line: Immunofluorescence for PKCδ in HCEC monolayers. It counts as cell-based, human. Particulars: PMA 1 μM; 15 minutes; scratched monolayers. As to the method:
HCEC monolayers were grown to confluency and were scratched with a 10 μl pipette tip or left unscratched, and then the monolayers were treated for 15 minutes with (A-B) buffer, (C-D) PMA (1 μM), (E-F) 250 ng/ml CAP37, and (G-J) 500 ng/ml CAP37. Cells were stained for PKCδ (250 ng/ml; (A-H)), and PKCα (1 μg/ml; (I-J)) and detected using immunofluorescence (4 μg/ml, ALEXA FLUOR® 488 dye (Life Technologies Corp., Grand Island, N.Y.)). […] Scratched monolayers that were treated for 18 hours with CAP37 (250 ng/ml; (L)) or left untreated (K) were stained for PKCδ. […] Scale bars, 20 μm.
Immunofluorescence: HCECs and primary HCECs were cultured on Lab-Tek® II glass chamber slides (Nunc, Rochester, N.Y.) and starved overnight in basal media. For wounding studies, monolayers were scratched with a 10 μl pipette tip or left unscratched and treated with 1 μM phorbol 12-myristate 13-acetate (PMA, Sigma-Aldrich), rCAP37 (25-500 ng/ml), or basal KSFM (Gibco) for 15 minutes. After treatment, the cells were fixed in 4% (v/v) formaldehyde solution (Thermo, Rockford, Ill.) in PBS (Gibco) for 20 minutes at room temperature followed by permeabilization in 0.5% TRITON™-X 100 (Mallinckrodt, St. Louis, Mo.) in PBS for 10 minutes. Remaining formaldehyde was quenched with 0.05 M ammonium chloride (NH4Cl, Sigma-Aldrich, St. Louis, Mo.) in PBS for 10 minutes. […]

For `CCCCCCCCCCCCCC(=O)O[C@@H]1[C@@H](C)[C@@]2(O)[C@@H](C=C(CO)C[C@]3(O)C(=O)C(C)=C[C@@H]23)[C@@H]2C(C)(C)[C@]12OC(C)=O` [PMA, phorbol 12-myristate 13-acetate, reference compound], the “PKCδ staining, in words” value is on record as “increased staining”.
